Measured values reported in patent publication US7129073B2, “Regulation of neuronal function through metabotropic glutamate receptor signaling pathways” (The Rockefeller University, priority 2001, dated 2006).

Key:
Cdk5/p25 = Cdk5/p25 (Homo sapiens, UniProt Q00535); assay: in vitro inhibitory potency of CKI-7 towards Cdk5/p25; type: biochemical
Method: CKI may also regulate Cdk5 kinase activity in response to mGluR receptor activation, or vice versa. To examine these possibilities, experiments were performed with a CKI inhibitor, CKI-7. The crystal structure of the catalytic domain of casein kinase I complexed with CKI-7 provided evidence that CKI-7 achieves its selectivity for CKI by hydrophobic contacts and hydrogen bonding with the isoquinoline ring (Xu, R. M. et al. 1996. Proc. Natl. Acad. Sci. USA 93:6308–6313). In in vitro studies, the inhibitory potency (IC50 values) for CKI-7 towards CKI and Cdk5/p25 was determined.

MM2-CK1ε [1] = assay: phosphopeptide mapping of MM2-CK1ε in N2a cells; type: cell-based; conditions: DHPG 2 min
Method: Twenty-four hours after transfecting N2a cells with CK1ε expression plasmids, cells were incubated in 200 μCi/ml (NEN) ^32P-inorganic phosphate and phosphate-free serum-free DMEM for 2 h. […] Cells were treated with DHPG for various periods of time as indicated, harvested by lysis in RIPA buffer and clarified by centrifugation at 14,000×g for 10 min. Soluble extracts containing HA- or Myc-tagged proteins were immunoprecipitated with 12CA5 or 9E10 monoclonal antibody and protein A-agarose. The immunoprecipitates were eluted from the protein A-agarose and separated by SDS-PAGE on 10% gel. Proteins were stained briefly with Coomassie Brilliant Blue, the gels were dried, and the labeled proteins were visualized by autoradiography.
Radiolabeled protein bands were excised, rehydrated, de-stained and dried in a speedvac. The gel slices were minced and rehydrated in 75 μg/ml TPCK/trypsin in 50 mM NH4CO3H (1 ml final volume) for 24 h at 37° C. The supernatant was removed from the gel slices and then lyophilized to dryness. Recovery of tryptic phosphopeptides was determined by Cerenkov counting. The two-dimensional peptide mapping method was used to separate phosphopeptides (23). Lyophilized tryptic peptides were suspended in 10 μl of electrophoresis buffer (10% acetic acid and 1% pyridine, pH 3.5) and spotted onto thin-layer cellulose plates (20×20 cm, Analtech). […]

HA-CK1ε = assay: 32P metabolic labeling and two-dimensional phosphopeptide mapping of HA-CK1ε in N2a cells; type: cell-based; conditions: DHPG 2 or 4 min; returned to 0 min level at ten min
MM2-CK1ε [2] = assay: kinase activity of Myc-MM2-CK1ε mutant immunoprecipitated from transfected N2a cells; type: cell-based; conditions: DHPG 100 μM 2 min, in the absence or presence of cyclosporin A
Method: Neuroblastoma N2a cells were cultured to 50–60% confluence in DMEM containing 5% fetal bovine serum. Four μg of the expression plasmid for HA-CK1ε or myc-MM2-CK1ε was transfected into N2a cells in 100 mm dishes using FuGENE6™. Twenty-four hours after transfection, cells were incubated at room temperature in phosphate-buffered Kreb's-Henseleit solution (Sigma) for 10 min and then with or without inhibitors for 30 min before treating with (S)-3,5-DHPG, for 2 min. Cells were then lysed in 1 ml of radio-immunoprecipitation (RIPA) buffer containing 1% NP-40, 150 mM NaCl, 0.1% SDS, 50 mM Tris, pH 8.0, 5 mM Na3VO4, 20 mM NaF, 20 mM β-glycerol-phosphate and protease inhibitors. Lysates were centrifuged at 10,000 g, and supernatants were used for immunoprecipitation and kinase assay.
For immunoprecipitation of CK1ε from N2a cells, lysates (1 mg of total protein) were precleared with 5 μl of mouse IgG (ICN) and 50 μl of protein A agarose for 30 min. Five μl (approximately 2 μg) of anti-HA or anti-myc antibody was added and samples were incubated for 1 h at 4° C. Five μl of anti-mouse rabbit IgG and 50 μl of protein A agarose were then added for 45 min. […]
CK1 assays were performed in a 30 μl assay volume with 2 μg of purified DARPP-32, 500 μM ATP and 5 μCi γ-^32P-ATP. […] Results were quantified using a Molecular Dynamics PHOSPHORIMAGER™. […]

Sequence of Cdk5/p25 (Q00535 whole entry, species assumed, the tested form may be a part): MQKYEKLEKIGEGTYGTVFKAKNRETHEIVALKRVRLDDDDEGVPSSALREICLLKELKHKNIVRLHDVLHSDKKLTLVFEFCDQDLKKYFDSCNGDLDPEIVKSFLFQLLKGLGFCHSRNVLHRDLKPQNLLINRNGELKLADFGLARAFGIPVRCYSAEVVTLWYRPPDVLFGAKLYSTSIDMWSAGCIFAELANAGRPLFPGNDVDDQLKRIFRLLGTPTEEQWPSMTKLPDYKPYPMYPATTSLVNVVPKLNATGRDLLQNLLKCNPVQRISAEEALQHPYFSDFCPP
Sequence of Cdk5/p25 (Q15078 99-307 partner limits assumed, species assumed): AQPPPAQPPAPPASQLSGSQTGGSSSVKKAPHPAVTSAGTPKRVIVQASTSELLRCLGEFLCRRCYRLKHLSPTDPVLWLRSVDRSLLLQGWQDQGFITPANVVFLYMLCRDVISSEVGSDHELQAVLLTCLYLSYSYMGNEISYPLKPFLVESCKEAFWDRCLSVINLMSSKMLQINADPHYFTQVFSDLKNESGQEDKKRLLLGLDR

| IC50 (Cdk5/p25) [µM] | Structure (SMILES) | effect on phosphorylation of MM2-CK1ε (MM2-CK1ε [1]) | effect on phosphorylation state of CK1ε (subset of acidic phosphopeptides) (HA-CK1ε) | effect on MM2-CK1ε activity (MM2-CK1ε [2]) |
| --- | --- | --- | --- | --- |
| 200 | NCCNS(=O)(=O)c1ccc(Cl)c2ccncc12 [CKI-7] |  |  |  |
|  | N[C@H](C(=O)O)c1cc(O)cc(O)c1 [DHPG, (S)-3,5-Dihydroxyphenylglycine] | no effect | rapid and transient dephosphorylation | no effect |
